Laboratory results: patent US9554573B2, “Binary insecticidal or pesticidal mixture” (BAYER CROPSCIENCE AKTIENGESELLSCHAFT, priority 2013, dated 2017)

Experiments:
[1] = system: Spodoptera frugiperda; test: Spodoptera frugiperda spray test (maize leaf sections); assay type: in vivo; details: 144 h, after 6 d, read-out: Efficacy in % after 6 d (mortality)
Procedure: Solvent: 78.0 parts by weight acetone
• 1.5 parts by weight dimethylformamide Emulsifier: 0.5 parts by weight alkylarylpolyglycolether
(§1) To produce a suitable preparation of the active compound, 1 part by weight of active compound is mixed with the stated amount of solvent and emulsifier, and the concentrate is diluted with emulsifier-containing water to the desired concentration. To produce a suitable preparation of a spore suspension the spores are diluted with emulsifier—containing water to the desired concentration.
Maize (Zea mais) leaf sections are sprayed with a preparation of the active ingredient of the desired concentration. Once dry, the leaf sections are infested with fall armyworm larvae (Spodoptera frugiperda).
After the specified period of time, mortality in % is determined. 100% means all caterpillars have been killed and 0% means none of the caterpillars have been killed. The mortality values determined thus are recalculated using the Colby-formula (see sheet 1).

[2] = system: Phaedon cochleariae; test: Phaedon cochleariae spray test (Chinese cabbage leaf disks); assay type: in vivo; details: foliar, 144 h, after 6 d, read-out: Efficacy in % after 6 d (mortality)
Procedure: Solvent: 78.0 parts by weight of acetone
• 1.5 parts by weight of dimethylformamide Emulsifier: 0.5 parts by weight of alkylaryl polyglycolether
as §1, with “of” for “of the”, “emulsifier—containing” for “emulsifier-containing”
Chinese cabbage (Brassica pekinensis) leaf-disks are sprayed with a preparation of the active ingredient of the desired concentration. Once dry, the leaf disks are infested with mustard beetle larvae (Phaedon cochleariae).
After the specified period of time, mortality in % is determined. 100% means all beetle larvae have been killed and 0% means none of the beetle larvae have been killed. The mortality values determined thus are recalculated using the Colby-formula (see sheet 1).

Compound: Cc1cc(C(F)(C(F)(F)F)C(F)(F)F)ccc1NC(=O)c1cccc(Cl)c1C(=O)NC(C)(C)C#N [(I-5)]
- mortality at 0.25 g/ha ([1]; 0.25 g ai/ha): 0%
- mortality at 0.8 g/ha ([1]; 0.8 g ai/ha): 33%
- mortality at 3 g/ha ([1]; 3 g ai/ha): 33%
- mortality at 2.5 g/ha ([2]; 2.5 g ai/ha): 0%
- mortality at 12 g/ha ([2]; 12 g ai/ha): 0%
